In PMC10539439 (Pharmacological Reports, 2023):
pEC50: −log10 of the molar value. Values joined by “and” are separate entries in the source; they are usually repeats but may differ in a detail not shown here. Identical values can stand only once. Like-named read-outs stand apart in the source and are kept apart here.

How the values were obtained:
[1] = 5 mg/kg b.w., i.p.; cited from earlier work
[2] = 5 mg/kg b.w., i.p.; cited from earlier work; remark: listed apart in the source
[3] = molecular target: T1, TAAR1 (Homo sapiens, UniProt Q96RJ0); parameters: method as in PMID 21525407; settings: summary table; cited from earlier work
T1 sequence (Q96RJ0 1-339): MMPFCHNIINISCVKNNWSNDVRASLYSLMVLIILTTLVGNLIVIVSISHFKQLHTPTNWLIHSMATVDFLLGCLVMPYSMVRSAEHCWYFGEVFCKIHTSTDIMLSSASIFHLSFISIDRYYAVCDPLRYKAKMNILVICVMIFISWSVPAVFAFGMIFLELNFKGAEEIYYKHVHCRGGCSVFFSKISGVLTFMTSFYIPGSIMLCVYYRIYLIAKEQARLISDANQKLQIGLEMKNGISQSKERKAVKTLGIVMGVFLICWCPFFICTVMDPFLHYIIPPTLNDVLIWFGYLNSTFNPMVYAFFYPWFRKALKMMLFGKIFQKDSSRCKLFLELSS

[4] = Body weight of non-obese rats fed a standard diet; format: in vivo, rat; settings: for body weight of rat in g in particular day: standard diet, 5 mg/kg
Method: Male Wistar rats (190–220 g) were housed in pairs. The control group (standard diet + vehicle) received vehicle (water, ip), while the test group (standard diet + 4-OH-Guanabenz) was injected (ip) with 4-OH-Guanabenz at a dose of 5 mg/kg b.w. dissolved in water. Body weights were measured daily immediately prior to drug administration.

[5] = molecular target: T1, TAAR1; assay: Intrinsic activity, Hit Hunter cAMP assay; format: cell-based
Method: The intrinsic activity study at cells with overexpression of TAAR1 (Eurofins, cat. No. 95-0173C2) was carried out at Eurofins Discoveries (Fremont, USA) using the Hit Hunter cAMP method. This assay monitors the activation of a GPCR via Gi and Gs secondary messenger signaling in a homogenous, non-imaging assay format using a technology developed by DiscoverX called Enzyme Fragment Complementation (EFC) with β-galactosidase (β-Gal) as the functional reporter. The enzyme is split into two complementary portions: EA for Enzyme Acceptor and ED for Enzyme Donor. ED is fused to cAMP and in the assay competes with cAMP generated by cells for binding to a cAMP-specific antibody. Active β-Gal is formed by complementation of exogenous EA to any unbound EDcAMP.
cAMP Hunter cell lines were expanded from freezer stocks according to standard procedures. Cells were seeded in a total volume of 20 µL into white-walled, 384-well microplates and incubated at 37 ℃ for the appropriate time prior to testing. For agonist determination, cells were incubated with a sample to induce a response. Media was aspirated from cells and replaced with 15 µL 2:1 HBSS/10 mM Hepes:cAMP XS + Ab reagent. Intermediate dilution of sample stocks was performed to generate 4X samples in assay buffer. 5 µL of 4 × sample was added to cells and incubated at 37 ℃ or room temperature for 30 or 60 min. Vehicle concentration was 1%. […] Microplates were read following signal generation with a PerkinElmer Envision instrument for chemiluminescent signal detection.

[6] = Food intake of rats fed a high-fat diet; format: in vivo, rat; settings: for food intake: high-fat diet, groups (cages) 1-3
Method: Male Wistar rats were housed in pairs and fed a high-fat diet consisting of a 40% fat blend (Labofeed B with 40% lard, Morawski, Manufacturer Feed, Poland) for 14 weeks, with water available ad libitum. Control rats were fed a standard diet (Labofeed B, Morawski Manufacturer Feed, Poland). After 10 weeks, rats with obesity-induced via their diet were randomly divided into three equal groups that had the same mean body weight and were treated ip with test compounds at doses of 2 or 5 mg/kg b.w./day (high-fat diet + 4OHGuanabenz) or control group: vehicle–water 0.3 ml/kg (high-fat diet + vehicle = obesity control group) once a day in the morning between 9:00 AM and 10:00 AM for 25 days. Control rats were maintained on a standard diet, with ip administration of vehicle – water (standard diet + vehicle = control group).
The high-fat diet contained 550 kcal and the standard diet 280 kcal per 100 g.
Food intake was measured three times a week, immediately before drug administration. In this target, food was provided to the animals in a certain amount (100 g/cage). The weight of food was measured using dedicated scale (WPT 1C, RADWAG Wagi Elektroniczne, Poland). Next, the total amount of food that the animals had not eaten during that period of time was collected from each cage and weighed, and then, the data were recorded. The next portion of food was subsequently weighed before serving, and so on.

[7] = Plasma glucose, triglyceride and total cholesterol of obese rats; format: in vivo, rat; settings: for plasma glucose concentration / plasma total cholesterol concentration / plasma triglyceride concentration: high-fat diet, single rats 1-6
Method: On the 26th day of the experiment, 20 min after ip administration of heparin (5000 IU/rat) and thiopental (70 mg/kg b.w.), plasma was collected from the left carotid artery and then centrifuged at 600 × g (15 min, 4 °C) to obtain the plasma.
To determine the glucose, triglyceride, or cholesterol level in plasma, standard enzyme and spectrophotometric tests (Biomaxima S.A. Lublin, Poland) were used. The substrate was decomposed with enzymes appropriate for the relevant product, which was converted to a colored compound. The colouration was proportional to the concentration. The absorbance was measured at a wavelength of 500 nm.

N=C(N)N/N=C/c1c(Cl)cccc1Cl [Guanabenz]
Blood pressure after one administration [1]: Change [17] | Spontaneous activity [2]: ↓ [17] | Intrinsic activity at TAAR1 [3]: Agonist [48]

Cl.N=C(N)NN=Cc1c(Cl)cc(O)cc1Cl [4-OH-Guanabenz, 2-[(2,6-Dichloro-4-hydroxyphenyl)methylene]hydrazinecarboximidamide Hydrochloride]
effect on body weight (in words) ([4]; rats fed standard diet, 5 mg/kg b.w. ip): No significant effects on body weight | body weight of rat in g in particular day ([4]; day 1, individual rats): 206 g and 214 g and 229 g and 239 g | body weight of rat in g in particular day ([4]; day 2, individual rats): 206 g and 217 g and 231 g and 242 g | body weight of rat in g in particular day ([4]; day 3, individual rats): 203 g and 214 g and 223 g and 240 g | body weight of rat in g in particular day ([4]; day 4, individual rats): 207 g and 216 g and 230 g and 238 g | body weight of rat in g in particular day ([4]; day 5, individual rats): 210 g and 220 g and 230 g and 241 g | body weight of rat in g in particular day ([4]; day 6, individual rats): 212 g and 222 g and 230 g and 241 g | body weight of rat in g in particular day ([4]; day 7, individual rats): 212 g and 218 g and 231 g and 244 g | body weight of rat in g in particular day ([4]; day 8, individual rats): 214 g and 212 g and 227 g and 240 g | body weight of rat in g in particular day ([4]; day 9, individual rats): 210 g (2×) and 222 g and 237 g | body weight of rat in g in particular day ([4]; day 10, individual rats): 212 g and 215 g and 225 g and 240 g | body weight of rat in g in particular day ([4]; day 11, individual rats): 213 g and 214 g and 222 g and 239 g | body weight of rat in g in particular day ([4]; day 12, individual rats): 211 g and 213 g and 224 g and 241 g | body weight of rat in g in particular day ([4]; day 13, individual rats): 214 g and 212 g and 225 g and 242 g | body weight of rat in g in particular day ([4]; day 14, individual rats): 215 g and 211 g and 225 g and 239 g | body weight of rat in g in particular day ([4]; day 15, individual rats): 217 g and 211 g and 224 g and 242 g | body weight of rat in g in particular day ([4]; day 16, individual rats): 217 g and 213 g and 225 g and 242 g | body weight of rat in g in particular day ([4]; day 17, individual rats): 218 g and 212 g and 226 g and 243 g | body weight of rat in g in particular day ([4]; day 18, individual rats): 218 g and 214 g and 227 g and 243 g | body weight of rat in g in particular day ([4]; day 19, individual rats): 219 g and 214 g and 227 g and 244 g | body weight of rat in g in particular day ([4]; day 20, individual rats): 220 g and 215 g and 228 g and 244 g | body weight of rat in g in particular day ([4]; day 21, individual rats): 220 g and 216 g and 228 g and 245 g | body weight of rat in g in particular day ([4]; day 22, individual rats): 221 g and 216 g and 229 g and 245 g | body weight of rat in g in particular day ([4]; day 23, individual rats): 221 g and 217 g and 229 g and 246 g | body weight of rat in g in particular day ([4]; day 24, individual rats): 220 g and 217 g and 230 g and 246 g | body weight of rat in g in particular day ([4]; day 25, individual rats): 221 g and 218 g and 230 g and 247 g | Intrinsic activity at TAAR1 (in words) [5]: weak agonistic activity | pEC50 ([5]; agonist, tested up to 10^–4 M, response at 10^–2 and 10^–1 M assumed 90–100% of tyramine, read-out: EC50 calculated after computer simulation): 3.48 | Average Value (raw signal) ([5]; cAMP, Agonist, Conc(M) 1e-6): 980.00 | Value 1 / Value 2 (raw signal) ([5]; cAMP, Agonist, Conc(M) 1e-6): 960 and 1000 | Average Value (raw signal) ([5]; cAMP, Agonist, Conc(M) 1e-5): 1140.00 | Value 1 / Value 2 (raw signal) ([5]; cAMP, Agonist, Conc(M) 1e-5): 1080 and 1200 | Average Value (raw signal) ([5]; cAMP, Agonist, Conc(M) 0.0001): 2200.00 | Value 1 / Value 2 (raw signal) ([5]; cAMP, Agonist, Conc(M) 0.0001): 2200 | % Efficacy (of the full agonist tyramine) ([5]; cAMP, Agonist, Conc(M) 0.0001 (10^–4 M)): 23.1% | Emax at 100 µM ([5]; cAMP, Agonist, Conc(M) 0.0001 (10^–4 M), read-out: % Efficacy (of the full agonist tyramine)): 23% | Intrinsic activity at TAAR1 ([5]; summary table): + | effect on calories consumed (in words) ([6]; high-fat diet rats, ip at both doses (2 or 5 mg/kg b.w.), vs obesity control group): reduced the number of calories consumed | food intake ([6]; 2mg/kg, week 1, 2 mg/kg): 995.5 kcal/2rats and 924 kcal/2rats and 960 kcal/2rats | food intake ([6]; 2mg/kg, week 2, 2 mg/kg): 891 kcal/2rats and 654.5 kcal/2rats and 772.5 kcal/2rats | food intake ([6]; 2mg/kg, week 3, 2 mg/kg): 880 kcal/2rats and 863.5 kcal/2rats and 871.5 kcal/2rats | food intake ([6]; 5mg/kg, week 1, 5 mg/kg): 363 kcal/2rats and 478.5 kcal/2rats and 346.5 kcal/2rats | food intake ([6]; 5mg/kg, week 2, 5 mg/kg): 561 kcal/2rats and 621.5 kcal/2rats and 693 kcal/2rats | food intake ([6]; 5mg/kg, week 3, 5 mg/kg): 599.5 kcal/2rats and 594 kcal/2rats and 665.5 kcal/2rats | effect on plasma total cholesterol (in words) ([7]; high-fat diet rats, 5 mg/kg b.w.): highest plasma level of total cholesterol | effect on plasma triglyceride level (in words) ([7]; high-fat diet rats, 5 mg/kg b.w., vs obese control): significantly decreased plasma triglyceride levels | plasma glucose concentration ([7]; 2mg/kg): 4.77 mmol/L and 5.43 mmol/L and 6.06 mmol/L and 5.37 mmol/L and 5.51 mmol/L | plasma total cholesterol concentration ([7]; 2mg/kg): 0.86 mmol/L and 0.71 mmol/L and 0.87 mmol/L and 0.75 mmol/L and 0.78 mmol/L and 0.93 mmol/L | plasma triglyceride concentration ([7]; 2mg/kg): 0.17 mmol/L and 0.12 mmol/L and 0.21 mmol/L and 0.13 mmol/L and 0.14 mmol/L | plasma glucose concentration ([7]; 5mg/kg): 4.45 mmol/L and 5.37 mmol/L and 4.63 mmol/L and 5.39 mmol/L and 3.28 mmol/L and 4.68 mmol/L | plasma total cholesterol concentration ([7]; 5mg/kg): 0.93 mmol/L and 0.87 mmol/L and 0.8 mmol/L and 1.08 mmol/L and 0.88 mmol/L and 0.84 mmol/L | plasma triglyceride concentration ([7]; 5mg/kg): 0.12 mmol/L and 0.2 mmol/L and 0.1 mmol/L and 0.13 mmol/L and 0.18 mmol/L | effect on blood glucose level (in words) ([7]; obese rats, both doses (2 or 5 mg/kg b.w.), vs obese animals treated with water): significantly lower blood glucose levels
